For 22 compounds, IC50 results are on record in patent US8822699B2, “Heterocyclic compound and use thereof” (Takeda Pharmaceutical Company Limited, priority 2010, dated 2014).

By pIC50 is commonly meant −log10 of the IC50, conventionally taken in molar units.

pIC50: −log10 of the molar value.

For the first experiment, the system named is Aβ42 production in primary nerve cells. Nature of the experiment: Measurement of amyloid β production inhibition rate using primary nerve cell (Aβ42 sandwich ELISA). Type of experiment: cell-based. The note with it: Rattus norvegicus, 72 h, primary nerve cells from cerebral cortex of SD rat fetus; cultured 3 days with compound; culture supernatant, sandwich ELISA for Aβ42; read-out: Aβ42 production inhibitory activity IC50. On the procedure: Measurement of Amyloid β Production Inhibition Rate Using Primary Nerve Cell
The primary nerve cells were collected from the cerebral cortex of rat fetus (CLEA Japan, Inc.: SD rat, fetal life 17 days of age), and suspended in a neurobasal medium containing B27 supplement, L-glutamine, penicillin-streptomycin (manufactured by Invitrogen) at 500,000 cells/mL. Then, the suspension was seeded in poly L-lysine-coated 96 well plate (manufactured by SUMITOMO BAKELITE) by 100 μL, and cultured at 37° C., 5% CO2 for 7 days. The medium was completely removed, and a new neurobasal medium was added at 75 μL/well. Thereto was added (75 μL/well) a neurobasal medium supplemented with a 2-fold measurement concentration of an evaluation target compound, and the mixture was cultured for 3 days. The culture supernatant was collected from each well, diluted as appropriate, applied to sandwich ELISA between BNT77 antibody-BA27 antibody (for Aβ40) and sandwich ELISA between BNT77 antibody-3005 antibody (for Aβ42), and the amounts of Aβ40 and Aβ42 were measured.
The amyloid β production inhibition rate (%) of the compound was calculated by the following formula. (1−(amyloid β production amount with addition of compound)/(amyloid β production amount without addition of compound))×100
The amyloid β production 50% inhibitory rate (IC50 value) was calculated using the statistical analysis software (SAS Preclinical Package) as the concentration of the compound showing 50% inhibition when the amyloid β production amount without addition of the compound is 100%. In addition, a new neurobasal medium was added (75 μL/well) to the cells after collection of the culture supernatant, and the cells were left standing for about 30 min to reach room temperature. Cell-Titer Glo Luminescent Cell Viability Assay (manufactured by Promega) was added at 75 μL/well, and the plate was shaken for 2 min and reacted for about 10 min.
A general note: In an ELISA, binding on a coated surface is turned into a signal by an enzyme label.
Turning to `Cc1ncc(-c2ccc(-c3nnc4n3CCCC4(Oc3cc(F)c(F)c(F)c3)C(C)(C)O)cc2)o1` (stereo not shown) [Example 178, 2-{3-[4-(2-methyl-1,3-oxazol-5-yl)phenyl]-8-(3,4,5-trifluorophenoxy)-5,6,7,8-tetrahydro[1,2,4]triazolo[4,3-a]pyridin-8-yl}propan-2-ol], the negative logarithm of the IC50 (pIC50) is 6.77. On to `COc1cc(-c2nnc3n2CCCC3(Cc2ccc(F)c(F)c2)C(=O)N(C)CC(F)(F)F)ccc1-c1cnc(C)o1` (stereo not shown) [Example 60, 8-(3,4-difluorobenzyl)-3-[3-methoxy-4-(2-methyl-1,3-oxazol-5-yl)phenyl]-N-methyl-N-(2,2,2-trifluoroethyl)-5,6,7,8-tetrahydro[1,2,4]triazolo[4,3-a]pyridine-8-carboxamide], for which the pIC50 is 7.30.

With `COc1cc(-c2nnc3n2CC(C)CC3(Oc2ccc(F)c(F)c2)C(C)(C)O)ccc1-c1cnc(C)o1` (stereo not drawn) [Example 150, (6RS,8RS or 6RS,8SR)-2-{8-(3,4-difluorophenoxy)-3-[3-methoxy-4-(2-methyl-1,3-oxazol-5-yl)phenyl]-6-methyl-5,6,7,8-tetrahydro[1,2,4]triazolo[4,3-a]pyridin-8-yl}propan-2-ol], the negative logarithm of the IC50 (pIC50) is 6.93. As for `COc1cc(-c2nnc3n2CCCC3(Oc2cc(F)c(F)c(F)c2)C(=O)N(C)CC(F)(F)F)ccc1-c1cnc(C)o1` (stereo not shown) [Example 160, 3-[3-methoxy-4-(2-methyl-1,3-oxazol-5-yl)phenyl]-N-methyl-N-(2,2,2-trifluoro-ethyl)-8-(3,4,5-trifluorophenoxy)-5,6,7,8-tetrahydro-[1,2,4]triazolo[4,3-a]pyridine-8-carboxamide], the negative logarithm of the IC50 (pIC50) was 7.72. Consider `COc1cc(-c2nnn3c2CCCC3(C)c2ccc(Cl)c(Cl)c2)ccc1-n1cnc(C)n1` (stereo not shown) [Example 91, 7-(3,4-dichlorophenyl)-3-[3-methoxy-4-(3-methyl-1H-1,2,4-triazol-1-yl)phenyl]-7-methyl-4,5,6,7-tetrahydro[1,2,3]triazolo[1,5-a]pyridine], for which the pIC50 was 6.83. For the compound `Cc1ncc(-c2ccc(-c3nnc4n3CCCC4(Oc3ccc(F)c(F)c3)C(C)(C)O)cc2O)o1` (stereo not shown) [Example 168, 5-[8-(3,4-difluorophenoxy)-8-(1-hydroxy-1-methylethyl)-5,6,7,8-tetrahydro[1,2,4]triazolo[4,3-a]pyridin-3-yl]-2-(2-methyl-1,3-oxazol-5-yl)phenol], the pIC50 was 7.40. As to `COc1cc(-c2nnc3n2CCCC3(Oc2ccc(Cl)c(F)c2)C(C)(C)O)ccc1-c1cnc(C)o1` (stereo not shown) [Example 70, 2-{8-(4-chloro-3-fluorophenoxy)-3-[3-methoxy-4-(2-methyl-1,3-oxazol-5-yl)phenyl]-5,6,7,8-tetrahydro[1,2,4]triazolo[4,3-a]pyridin-8-yl}propan-2-ol], the negative logarithm of the IC50 (pIC50) was 8.00. As for `Cc1ncc(-c2ccc(-c3nnc4n3CCCC4(Oc3cc(F)c(F)c(F)c3)C(C)(C)O)cc2F)o1` (stereo not shown) [Example 166, 2-{3-[3-fluoro-4-(2-methyl-1,3-oxazol-5-yl)phenyl]-8-(3,4,5-trifluorophenoxy)-5,6,7,8-tetrahydro[1,2,4]triazolo[4,3-a]pyridin-8-yl}propan-2-ol], the pIC50 was 6.44. Consider `Cc1ncc(-c2ccc(-c3nnc4n3CCCC4(Oc3ccc(F)c(F)c3)C(C)(C)O)cc2OCC(F)F)o1` (stereo not shown) [Example 175, 2-{3-[3-(2,2-difluoroethoxy)-4-(2-methyl-1,3-oxazol-5-yl)phenyl]-8-(3,4-difluorophenoxy)-5,6,7,8-tetrahydro[1,2,4]-triazolo[4,3-a]pyridin-8-yl}propan-2-ol], for which the negative-log IC50 (pIC50) was 6.99.

Regarding `COc1cc(-c2nnc3n2CCCC3(Oc2ccc(C(F)(F)F)cn2)C(C)(C)O)ccc1-c1cnc(C)o1` (stereo not shown) [Example 95, 2-(3-[3-methoxy-4-(2-methyl-1,3-oxazol-5-yl)phenyl]-8-{[5-(trifluoromethyl)pyridin-2-yl]oxy}-5,6,7,8-tetrahydro[1,2,4]triazolo-[4,3-a]pyridin-8-yl)propan-2-ol], the pIC50 is 7.47. With `COc1cc(-c2nnc3n2CCCC3(Oc2cc(F)c(F)c(F)c2)C(C)(C)O)ccc1-c1ccnc(C)c1` (stereo not shown) [Example 174, 2-{3-[3-methoxy-4-(2-methylpyridin-4-yl)phenyl]-8-(3,4,5-trifluorophenoxy)-5,6,7,8-tetrahydro[1,2,4]triazolo[4,3-a]pyridin-8-yl}propan-2-ol], the pIC50 was 7.36. Consider `COc1cc(-c2nnc3n2CCCC3(Oc2cc(F)c(F)c(F)c2)C(C)(C)O)ccc1-n1cnc(Cl)c1` (stereo not shown) [Example 165, 2-{3-[4-(4-chloro-1H-imidazol-1-yl)-3-methoxyphenyl]-8-(3,4,5-trifluorophenoxy)-5,6,7,8-tetrahydro[1,2,4]triazolo[4,3-a]pyridin-8-yl}propan-2-ol], for which the pIC50 was 6.84. Take `COc1cc(-c2nnc3n2CCCC3(c2ccc(F)c(F)c2)C(C)(C)O)ccc1-c1cnc(C)o1` (stereo not shown) [Example 32, 2-{8-(3,4-difluorophenyl)-3-[3-methoxy-4-(2-methyl-1,3-oxazol-5-yl)phenyl]-5,6,7,8-tetrahydro[1,2,4]triazolo[4,3-a]pyridin-8-yl}propan-2-ol]: the pIC50 was 6.84. Regarding `COc1cc(-c2nnc3n2CCCC3(OCc2ccc(F)c(F)c2)C(=O)N(C)CC(F)(F)F)ccc1-c1cnc(C)o1` (stereo not shown) [Example 108, 8-[(3,4-difluorobenzyl)oxy]-3-[3-methoxy-4-(2-methyl-1,3-oxazol-5-yl)phenyl]-N-methyl-N-(2,2,2-trifluoroethyl)-5,6,7,8-tetrahydro[1,2,4]triazolo[4,3-a]pyridine-8-carboxamide], the pIC50 was 7.17. On the same count and under the same terms, as for `COc1cc(-c2nnc3n2CCCC3(Nc2cc(F)c(F)c(F)c2)C(C)(C)O)ccc1-c1cnc(C)o1` (stereo not shown) [Example 181, 2-{3-[3-methoxy-4-(2-methyl-1,3-oxazol-5-yl)phenyl]-8-[(3,4,5-trifluorophenyl)amino]-5,6,7,8-tetrahydro[1,2,4]triazolo[4,3-a]pyridin-8-yl}propan-2-ol], the figure is 7.24.

Still in this experiment, the particulars now being: primary nerve cells from cerebral cortex of SD rat fetus; cultured 3 days with compound; culture supernatant, sandwich ELISA for Aβ42; read-out: Aβ42 production inhibitory activity IC50.
For the compound `COc1nc(-c2nnc3n2CCC[C@]3(Oc2cc(F)c(F)c(F)c2)C(C)(C)O)ccc1-n1cnc(C)c1` [Example 197, 2-{(8R)-3-[6-methoxy-5-(4-methyl-1H-imidazol-1-yl)pyridin-2-yl]-8-(3,4,5-trifluorophenoxy)-5,6,7,8-tetrahydro[1,2,4]triazolo[4,3-a]pyridin-8-yl}propan-2-ol monogentisate], the negative-log IC50 (pIC50) was 7.52. As for `COc1cc(-c2nnc3n2CCCC3(CC2CC2)c2ccc(F)c(F)c2)ccc1-c1cnc(C)o1` (stereo not shown) [Example 20, 8-(cyclopropylmethyl)-8-(3,4-difluorophenyl)-3-[3-methoxy-4-(2-methyl-1,3-oxazol-5-yl)phenyl]-5,6,7,8-tetrahydro[1,2,4]triazolo-[4,3-a]pyridine], the pIC50 is 7.46. Still for that read-out and setting: under `COc1cc(-c2nnc3n2CCCC3(Cc2ccc(F)c(F)c2)C(C)(C)O)ccc1-c1cnc(C)o1` (stereo not shown) [Example 50, optically active 2-{8-(3,4-difluorobenzyl)-3-[3-methoxy-4-(2-methyl-1,3-oxazol-5-yl)phenyl]-5,6,7,8-tetrahydro[1,2,4]triazolo[4,3-a]pyridin-8-yl}propan-2-ol] stands 7.85; under `COc1cc(-c2nnn3c2CCCC3(Oc2cc(F)c(F)c(F)c2)C(C)(C)O)ccc1-c1cnc(C)o1` (stereo not shown) [Example 191, optically active 2-{3-[3-methoxy-4-(2-methyl-1,3-oxazol-5-yl)phenyl]-7-(3,4,5-trifluorophenoxy)-4,5,6,7-tetrahydro[1,2,3]triazolo[1,5-a]pyridin-7-yl}propan-2-ol], 8.10. With `COc1nc(-c2nnc3n2CCC[C@]3(Oc2cc(F)c(F)c(F)c2)C(C)(C)O)ccc1-n1cnc(C)c1` [Example 194, 2-{(8R)-3-[6-methoxy-5-(4-methyl-1H-imidazol-1-yl)pyridin-2-yl]-8-(3,4,5-trifluorophenoxy)-5,6,7,8-tetrahydro[1,2,4]triazolo[4,3-a]pyridin-8-yl}propan-2-ol 0.67 phosphate], the negative logarithm of the IC50 (pIC50) was 7.48. Turning to `COc1nc(-c2nnc3n2CCC[C@]3(Oc2cc(F)c(F)c(F)c2)C(C)(C)O)ccc1-n1cnc(C)c1` [Example 177, 2-{(8R)-3-[6-methoxy-5-(4-methyl-1H-imidazol-1-yl)pyridin-2-yl]-8-(3,4,5-trifluorophenoxy)-5,6,7,8-tetrahydro[1,2,4]triazolo[4,3-a]pyridin-8-yl}propan-2-ol monophosphate], the pIC50 was 7.47. Still for that read-out and setting: under `COc1cc(-c2nnc3n2CCCC3(C)c2ccc(Cl)cc2)ccc1-c1cnc(C)o1` (single isomer, unassigned) [Example 4, optically active 8-(4-chlorophenyl)-3-[3-methoxy-4-(2-methyl-1,3-oxazol-5-yl)phenyl]-8-methyl-5,6,7,8-tetrahydro[1,2,4]triazolo[4,3-a]pyridine] stands 7.49.
